Literature values in US20040157330A1, “Compositions and methods for targeted biological delivery of molecular carriers” (Arizeke Pharmaceuticals, Inc., priority 2003, published 2004).

Target: human transferrin receptor (Homo sapiens, UniProt P02786)
Conditions: for binding to the human transferrin receptor: without inhibiting transferrin binding

human transferrin receptor, sequence (P02786 whole entry): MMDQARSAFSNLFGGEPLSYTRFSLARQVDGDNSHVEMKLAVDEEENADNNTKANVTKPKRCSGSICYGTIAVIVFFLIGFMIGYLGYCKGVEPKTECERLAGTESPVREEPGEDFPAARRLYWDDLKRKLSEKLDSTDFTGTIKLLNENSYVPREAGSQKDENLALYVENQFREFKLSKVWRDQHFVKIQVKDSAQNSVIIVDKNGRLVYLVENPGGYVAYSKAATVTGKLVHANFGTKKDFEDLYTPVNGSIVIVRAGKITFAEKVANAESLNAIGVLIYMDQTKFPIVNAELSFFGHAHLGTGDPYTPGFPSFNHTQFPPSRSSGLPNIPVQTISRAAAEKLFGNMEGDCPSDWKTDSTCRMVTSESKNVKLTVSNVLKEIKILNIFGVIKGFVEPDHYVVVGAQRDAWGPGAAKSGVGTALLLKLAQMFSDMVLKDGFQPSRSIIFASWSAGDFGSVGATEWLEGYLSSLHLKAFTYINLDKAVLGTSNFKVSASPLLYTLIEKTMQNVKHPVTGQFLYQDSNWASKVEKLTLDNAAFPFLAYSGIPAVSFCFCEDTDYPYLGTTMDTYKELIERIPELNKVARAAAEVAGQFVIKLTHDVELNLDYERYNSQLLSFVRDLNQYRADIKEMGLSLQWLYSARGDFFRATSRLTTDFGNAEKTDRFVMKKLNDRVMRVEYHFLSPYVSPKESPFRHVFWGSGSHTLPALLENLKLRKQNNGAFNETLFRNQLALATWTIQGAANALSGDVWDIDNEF

Substance | binding to the human transferrin receptor | Kd (calculated, similar to the binding affinity of transferrin) [nM]
HAIYPRH | bind specifically | –
THRPPMWSPVWP | bind specifically | 15
